Test system: A431/CCKBR-tumor bearing nude mice
Test: not given
Conditions: co-injection of 60 nmol minigastrin

With LEEEEEAYGWMDF [minigastrin] the “[177Lu]Lu-PP-F11N kidney uptake with blocking” value was “not affected”.

For LEEEEEAYGWMDF [minigastrin], the “[177Lu]Lu-PP-F11N uptake in the tumor and stomach with blocking” value was “reduced”.

Test system: A431/CCKBR cells
Test: CellTiter 96 AQueous (MTS) proliferation assay
Assay type: cell-based, human
Conditions: not given

Going from `COCc1cc(O)c(O)c(O)c1-c1c(COC)cc(O)c(O)c1O` [2,2',3,3',4,4'-Hexahydroxy-1,1'-biphenyl-6,6'-dimethanol dimethyl ether] to `O.O.O=c1c(O)c(-c2ccc(O)c(O)c2)oc2cc(O)cc(O)c12` [Quercetin·2H2O], the “Proliferation [A570]” value rises from 0.98 to 1.03.

First: OC[C@H]1O[C@@H](n2cnc3cc(Cl)c(Cl)cc32)[C@H](O)[C@@H]1O [5,6-dichloro-1-β-D-ribofuranosylben zimidazole]
Second: CC[C@H](CO)Nc1nc(NCc2ccccc2)c2ncn(C(C)C)c2n1 [Roscovi tine]
The “Proliferation [A570]” value of the first is higher: 0.99 for the first, 0.91 for the second.

Going from `CCCCCCCCCCCCC/C=C/[C@@H](O)[C@@H](N)CO` [D-erythro-Sphingosine] to `N#C/C(=C\c1ccc(O)c(O)c1)C(N)=S` [TYRPHOSTIN 47], the “Proliferation [A570]” value rises from 0.96 to 0.98.

First: C/C(O)=C(\C#N)C(=O)Nc1cc(Br)ccc1Br [LFM-A13]
Second: C[S+]([O-])c1ccc(-c2nc(-c3ccncc3)c(-c3ccc(F)cc3)[nH]2)cc1 (stereo not shown) [SB-203580]
The “Proliferation [A570]” value of the first is lower: 0.93 for the first, 0.95 for the second.

In the case of `CC1=C(O)C(=O)[C@@H]2O[C@@H]2C1=O` [Terreic acid], the “Proliferation [A570]” value is reported as 1.06.

Same assay, conditions: 10 μM kinase inhibitor; MTS absorbance at 570 nm, reference 650 nm; mean of triplicate

Going from `CCCCCCCCCCCCCCCC(=O)OC(CC(=O)[O-])C[N+](C)(C)C` (racemic) [Palmitoyl-DL-carnitine] to `Nc1ncc2[nH]cnc2n1` [2-Am inopurine], the “Proliferation [A570]” value rises from 0.91 to 0.96.

Compared with `O=C(O)c1cc(NCc2cc(O)ccc2O)ccc1O` [2-Hydroxy-5-(2,5-dihydroxybenzylamino)benzoi c acid], `Nc1ncnc2c1c(I)cn2[C@@H]1O[C@H](CO)[C@@H](O)[C@H]1O` [5-Iodotubericidin] is higher in “Proliferation [A570]” value: 1.01 for the first, 1.15 for the second.

Going from `N#CC(C#N)=Cc1ccc([N+](=O)[O-])c(O)c1` [AG-1 26] to `N#CC(=Cc1ccc2[nH]ccc2c1)C(N)=C(C#N)C#N` [AG-3 70], the “Proliferation [A570]” value falls from 1.01 to 0.97.

Compared with `N#C/C(=C\c1ccc(O)c(O)c1)C(=O)NCc1ccccc1` [AG-4 90], `N#C/C(=C\c1ccc(O)c(O)c1)C(=O)Nc1ccccc1` [AG-4 94] is lower in “Proliferation [A570]” value: 1.03 for the first, 0.97 for the second.

`COc1cc(/C=C(\C#N)C(N)=O)cc(CSc2nc3ccccc3s2)c1O` [AG-8 25] and `CC(C)(C)c1cc(/C=C(\C#N)C(N)=S)cc(C(C)(C)C)c1O` [AG-8 79] are the same in “Proliferation [A570]” value: 0.80 for the first, 0.80 for the second.

Going from `COc1cc2ncc(-c3ccccc3)nc2cc1OC` [AG-1296] to `O=c1cc(-c2ccc(O)cc2)oc2cc(O)cc(O)c12` [Apigenin], the “Proliferation [A570]” value falls from 0.94 to 0.90.

First: Cc1ccc(S(=O)(=O)/C=C/C#N)cc1 [BAY 11-7082]
Second: CC(C)c1cnc(NC(=O)Cc2ccccc2)s1 [BML-259]
The “Proliferation [A570]” value of the first is higher: 1.14 for the first, 1.09 for the second.

First: O=c1c(-c2ccc(O)cc2)coc2cc(O)ccc12 [Daidzein]
Second: COC(=O)/C=C/c1cc(O)ccc1O [Erbstatin analog]
The “Proliferation [A570]” value of the first is lower: 0.92 for the first, 1.12 for the second.

Going from `CN(C)CCCn1cc(C2=C(c3c[nH]c4ccccc34)C(=O)NC2=O)c2ccccc21` [GF 109203X] to `O=C1Nc2ccc(I)cc2/C1=C/c1cc(Br)c(O)c(Br)c1` [GW 5074], the “Proliferation [A570]” value falls from 0.95 to 0.93.

Going from `O=c1c(-c2ccc(O)cc2)coc2cc(O)cc(O)c12` [Genistein] to `CC1CNCCN1S(=O)(=O)c1cccc2cnccc12.Cl.Cl` (stereo not shown) [H-7·2HCl], the “Proliferation [A570]” value rises from 0.95 to 0.98.

Going from `CNCCNS(=O)(=O)c1cccc2cnccc12` [H-8] to `Cl.NCCNS(=O)(=O)c1cccc2cnccc12` [H-9·HCl], the “Proliferation [A570]” value rises from 0.99 to 1.03.

First: Cl.Cl.O=S(=O)(NCCNC/C=C/c1ccc(Br)cc1)c1cccc2cnccc12 [H-89·2HCl]
Second: Cl.NC(N)=NCCNS(=O)(=O)c1cccc2cnccc12 [HA-1004·HCl]
The “Proliferation [A570]” value of the first is lower: 0.97 for the first, 1.05 for the second.

Going from `Cl.Cl.O=S(=O)(c1cccc2cnccc12)N1CCCNCC1` [HA-1077·2HCl] to `O=P(O)(O)C(O)c1ccc2ccccc2c1` (stereo not shown) [Hydroxy-2-naphthalenylmethylphosp honic acid], the “Proliferation [A570]” value rises from 0.99 to 1.00.

First: Cc1cc(O)c2c(=O)c3c(O)cc(O)c4c5c(O)cc(O)c6c(=O)c7c(O)cc(C)c8c1c2c(c34)c(c78)c65 [Hypericin]
Second: O=C1Nc2ccccc2/C1=C1/Nc2ccccc2/C1=N\O [Indirubin-3'-monooxime]
The “Proliferation [A570]” value of the first is higher: 0.93 for the first, 0.87 for the second.

Compared with `O=C1Nc2ccccc2/C1=C1/Nc2ccccc2C1=O` [Indirubin], `Cn1cnc2nc(NCCO)nc(NCc3ccccc3)c21` [Iso-olomoucine] is lower in “Proliferation [A570]” value: 1.09 for the first, 0.96 for the second.

Compared with `CN([C@@H](Cc1ccc(OS(=O)(=O)c2cccc3cnccc23)cc1)C(=O)N1CCN(c2ccccc2)CC1)S(=O)(=O)c1cccc2cnccc12` [KN-62], `COc1ccc(S(=O)(=O)N(CCO)c2ccccc2CN(C)C/C=C/c2ccc(Cl)cc2)cc1` [KN-93] is higher in “Proliferation [A570]” value: 0.82 for the first, 0.92 for the second.

Compared with `O=C1Cc2c([nH]c3ccc(Br)cc23)-c2ccccc2N1` [Kenpaullone], `O=c1cc(N2CCOCC2)oc2c(-c3ccccc3)cccc12` [LY 294002] is lower in “Proliferation [A570]” value: 0.99 for the first, 0.92 for the second.

Going from `O=C(O)c1cc(N(Cc2ccccc2O)Cc2cc(O)ccc2O)ccc1O` [Lavendustin A] to `Cl.O=S(=O)(c1cccc2c(I)cccc12)N1CCCNCC1` [ML-7·HCl], the “Proliferation [A570]” value falls from 1.15 to 0.95.

First: Cl.O=S(=O)(c1cccc2c(Cl)cccc12)N1CCCNCC1 [ML-9·HCl]
Second: CC(C)n1cnc2c(NCc3ccccc3)nc(NCCO)nc21 [N9-isopropyl-olomoucine]
The “Proliferation [A570]” value of the first is higher: 0.94 for the first, 0.93 for the second.

Going from `Cn1cnc2c(NCc3ccccc3)nc(NCCO)nc21` [Olomoucine] to `COc1cccc(-c2cc(=O)c3ccccc3o2)c1N` [PD-98059], the “Proliferation [A570]” value rises from 0.98 to 1.01.

Going from `CO[C@@H]1[C@H](N(C)C(=O)c2ccccc2)C[C@H]2O[C@]1(C)n1c3ccccc3c3c4c(c5c6ccccc6n2c5c31)C(=O)NC4` [PKC-4 12] to `Cc1ccc(-c2nn(C(C)(C)C)c3ncnc(N)c23)cc1` [PP1], the “Proliferation [A570]” value rises from 0.78 to 0.80.

First: CC(C)(C)n1nc(-c2ccc(Cl)cc2)c2c(N)ncnc21 [PP2]
Second: Oc1cc(O)cc(/C=C/c2ccc(O)c(O)c2)c1 [Piceatannol]
The “Proliferation [A570]” value of the first is lower: 0.86 for the first, 1.02 for the second.

First: CS(=O)(=O)O.Cn1cc(C2=C(c3cn(CCCSC(=N)N)c4ccccc34)C(=O)NC2=O)c2ccccc21 [Ro 31-8220 mesylate]
Second: CC(=O)c1c(O)c(C)c(O)c(Cc2c(O)c3c(c(C(=O)/C=C/c4ccccc4)c2O)OC(C)(C)C=C3)c1O [Rottle rin]
The “Proliferation [A570]” value of the first is lower: 0.51 for the first, 0.64 for the second.

Compared with `Oc1ccc(-c2nc(-c3ccncc3)c(-c3ccc(F)cc3)[nH]2)cc1` [SB-202190], `Oc1c2ccccc2c2c3c(cccc13)N=N2` [SP 600125] is lower in “Proliferation [A570]” value: 1.02 for the first, 0.77 for the second.

Going from `CC(C)c1cc(/C=C(\C#N)C(=O)NCCCc2ccccc2)cc(C(C)C)c1O` [SU1498] to `CN(C)c1ccc(/C=C2\C(=O)Nc3ccccc32)cc1` [SU 4312], the “Proliferation [A570]” value falls from 0.98 to 0.97.

Compared with `CN[C@@H]1C[C@H]2O[C@@](C)([C@@H]1OC)n1c3ccccc3c3c4c(c5c6ccccc6n2c5c31)C(=O)NC4` [Staurosporine], `CC(C)(C)c1cc(C=C(C#N)C#N)cc(C(C)(C)C)c1O` [TYRPHOSTIN 9] is higher in “Proliferation [A570]” value: 0.51 for the first, 0.62 for the second.

Going from `N#CC(C#N)=Cc1ccc(O)c(O)c1` [TYRPHOSTIN 23] to `N#CC(C#N)=Cc1cc(O)c(O)c(O)c1` [TYRPHOSTIN 25], the “Proliferation [A570]” value rises from 1.07 to 1.12.

Going from `N#C/C(=C\c1ccc(O)c(O)c1)C(N)=O` [TYRPHOSTIN 46] to `N#CC(C#N)=C(N)/C(C#N)=C/c1cc(O)c(O)c(O)c1` [TYRPHOSTIN 51], the “Proliferation [A570]” value rises from 1.04 to 1.05.

Going from `N#CC(C#N)=Cc1cc(O)c(O)c([N+](=O)[O-])c1` [TYRPHOSTIN AG 1288] to `Cc1cc2ncc(-c3ccccc3)nc2cc1C` [TYRPHOSTIN AG 1295], the “Proliferation [A570]” value falls from 0.97 to 0.94.

First: COc1cc2ncnc(Nc3cccc(Cl)c3)c2cc1OC [TYRPHOSTIN AG 1478]
Second: N#CC(=C(/N)Sc1ccccc1N)/C(C#N)=C(/N)Sc1ccccc1N [U-0126]
The “Proliferation [A570]” value of the first is lower: 0.72 for the first, 0.87 for the second.

First: COC[C@H]1OC(=O)c2coc3c2[C@@]1(C)C1=C(C3=O)[C@@H]2CCC(=O)[C@@]2(C)C[C@H]1OC(C)=O [Wortmannin]
Second: C[C@@H](N)[C@H]1CC[C@H](C(=O)Nc2ccncc2)CC1.Cl.Cl [Y-27632·2HCl]
The “Proliferation [A570]” value of the first is lower: 0.86 for the first, 1.02 for the second.

Going from `Cc1ccc(NC(=O)c2cccc(N(C)C)c2)cc1NC(=O)c1ccc(O)cc1` [ZM 336372] to `C=CC(=O)c1ccc2ccccc2c1` [ZM 449829], the “Proliferation [A570]” value rises from 0.87 to 0.98.

For BML-265, the “Proliferation [A570]” value was 0.78.
